In US11311542B2, “Inhibitors of cyclin dependent kinase 7 (CDK7)” (Syros Pharmaceuticals, Inc., priority 2018, dated 2022):
Read-outs that look alike come from different tables or passages of the source.

Assays:
COV318 cells = assay: Inhibition of cell proliferation (CyQUANT Direct), COV318; type: cell-based, human; conditions: COV318, 72-hour
Method: (§1) HCC70 and MB453 cells are cell lines derived from human triple negative breast cancer COV318 and COV504 cells are cell lines derived from human ovarian cancer. Representative compounds of the invention were tested at different concentrations (from 4 μM to 126.4 pM; 0.5 log serial dilutions) for their ability to inhibit the proliferation of each of these cell lines. Known CDK inhibitors dinaciclib or N-((1S,3R)-3-((5-chloro-4-(1H-indol-3-yl) pyrimidin-2-yl)amino)cyclohexyl)-5-((E)-4-(dimethylamino)but-2-enamido)picolinamide and triptolide were used as positive controls. Cells were seeded at approximately 2,000 cells/well and grown in ATCC-formulated RPMI-1640 Medium (ATCC 30-2001)+10% FBS. The cells were cultured at 37° C. in a humidified chamber in the presence of 5% CO2. Proliferation assays were conducted over a 72-hour time period. CyQUANT® Direct Cell Proliferation Assay (Life Technologies, Chicago, Ill. USA) was used to assess the anti-proliferative effects of the compounds following manufacturer's directions and utilizing the reagents supplied with the CyQUANT® Direct Cell kit.

MB453 cells = assay: Inhibition of cell proliferation (CyQUANT Direct), MB453; type: cell-based, human; conditions: MB453, 72-hour
Method: as §1

CDK2/Cyclin E1 complex = CDK2/Cyclin E1 complex (Homo sapiens, UniProt P24941); assay: CDK2 kinase inhibition assay (Caliper/LabChip EZ Reader)
[1] = target: CDK12 (aa686-1082)/Cyclin K complex (Homo sapiens, UniProt Q9NYV4); assay: CDK12 kinase inhibition assay (Caliper/LabChip EZ Reader)
Method: Compounds described herein were assayed for inhibition of CDK7, CDK9, CDK12, and CDK2 activity at Biortus Biosciences (Jiangyin, Jiangsu Province, P.R. of China) using kinase assays for each CDK developed with a Caliper/LabChip EZ Reader (Perkin Elmer, Waltham, Mass.).
Furthermore, the CDK9 inhibition assay used CDK9/Cyclin T1 complex (8 nM) and “5-FAM-CDK9tide” peptide substrate (2 μM, synthesized fluorophore-labeled peptide with the following sequence: 5-FAM-GSRTPMY-NH2 (SEQ ID NO:2) where 5-FAM is defined above and NH2 signifies a C-terminal amide) with 10 mM MgCl2 in the buffer composition listed above. The CDK12 inhibition assay used CDK12 (aa686-1082)/Cyclin K complex (50 nM) and “5-FAM-CDK9tide” (2 μM) as defined above, with 2 mM MgCl2 in the buffer composition above. Additionally, the CDK2 inhibition assay used CDK2/Cyclin E1 complex (0.5 nM) and “5-FAM-CDK7tide” (2 μM; defined above) with 2 mM MgCl2 in the buffer composition above.
The incubation period at 27° C. for each CDK inhibition assay was chosen such that the fraction of phosphorylated peptide product produced in each assay, relative to the total peptide concentration, was approximately 20% (±5%) for the uninhibited kinase (35 min. for CDK7, 35 min. for CDK2, 3 hr. for CDK12, 15 min. for CDK9).

[2] = target: CDK7/Cyclin H/MAT1 complex (Homo sapiens, UniProt P50613); assay: CDK7 kinase inhibition assay (Caliper/LabChip EZ Reader)
CDK9/Cyclin T1 complex = CDK9/Cyclin T1 complex (Homo sapiens, UniProt P50750); assay: CDK9 kinase inhibition assay (Caliper/LabChip EZ Reader)
COV504 cells = assay: Inhibition of cell proliferation (CyQUANT Direct), COV504; type: cell-based, human; conditions: COV504, 72-hour
Method: as §1

HCC70 cells = assay: Inhibition of cell proliferation (CyQUANT Direct), HCC70; type: cell-based, human; conditions: HCC70, 72-hour
Method: as §1

[3] = read-out: CDK2 IC50, CDK2/Cyclin E1 0.5 nM, ATP 2 mM, 35 min at 27° C.
[4] = read-out: CDK12 IC50, CDK12 (aa686-1082)/Cyclin K 50 nM, ATP 2 mM, 3 hr at 27° C.
[5] = read-out: CDK7 IC50, CDK7/Cyclin H/MAT1 6 nM, ATP 2 mM, 35 min at 27° C.
[6] = read-out: CDK9 IC50, CDK9/Cyclin T1 8 nM, ATP 2 mM, 15 min at 27° C.

Chain of CDK7/Cyclin H/MAT1 complex (P50613 whole entry): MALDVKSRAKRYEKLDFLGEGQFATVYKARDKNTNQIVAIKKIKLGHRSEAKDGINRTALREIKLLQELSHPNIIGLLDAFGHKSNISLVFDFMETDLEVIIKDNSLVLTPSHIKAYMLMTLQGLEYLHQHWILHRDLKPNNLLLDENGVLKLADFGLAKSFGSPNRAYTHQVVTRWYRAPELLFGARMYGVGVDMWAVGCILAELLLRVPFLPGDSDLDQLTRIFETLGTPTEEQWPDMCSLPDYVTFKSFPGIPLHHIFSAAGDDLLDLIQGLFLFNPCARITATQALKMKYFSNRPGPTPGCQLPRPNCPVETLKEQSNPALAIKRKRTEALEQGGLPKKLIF
Chain of CDK7/Cyclin H/MAT1 complex (P51946 whole entry partner): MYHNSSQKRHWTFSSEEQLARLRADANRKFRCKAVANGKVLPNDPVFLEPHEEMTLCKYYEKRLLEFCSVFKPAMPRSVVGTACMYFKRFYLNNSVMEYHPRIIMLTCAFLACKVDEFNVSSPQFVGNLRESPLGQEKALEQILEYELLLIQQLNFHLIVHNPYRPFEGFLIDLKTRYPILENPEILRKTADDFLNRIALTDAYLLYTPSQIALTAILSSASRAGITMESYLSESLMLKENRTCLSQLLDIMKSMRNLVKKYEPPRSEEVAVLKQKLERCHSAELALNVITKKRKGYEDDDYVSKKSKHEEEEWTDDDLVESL
Chain of CDK7/Cyclin H/MAT1 complex (P51948 whole entry partner): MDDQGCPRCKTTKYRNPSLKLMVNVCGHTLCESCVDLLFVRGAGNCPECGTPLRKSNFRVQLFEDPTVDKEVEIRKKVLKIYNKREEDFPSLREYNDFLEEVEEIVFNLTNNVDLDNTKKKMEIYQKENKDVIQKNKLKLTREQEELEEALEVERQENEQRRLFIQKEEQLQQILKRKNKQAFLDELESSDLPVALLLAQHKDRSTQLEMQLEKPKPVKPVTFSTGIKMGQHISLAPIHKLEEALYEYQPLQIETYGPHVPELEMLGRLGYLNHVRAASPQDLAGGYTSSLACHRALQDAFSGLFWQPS
Chain of CDK12 (aa686-1082)/Cyclin K complex (Q9NYV4 686-1082): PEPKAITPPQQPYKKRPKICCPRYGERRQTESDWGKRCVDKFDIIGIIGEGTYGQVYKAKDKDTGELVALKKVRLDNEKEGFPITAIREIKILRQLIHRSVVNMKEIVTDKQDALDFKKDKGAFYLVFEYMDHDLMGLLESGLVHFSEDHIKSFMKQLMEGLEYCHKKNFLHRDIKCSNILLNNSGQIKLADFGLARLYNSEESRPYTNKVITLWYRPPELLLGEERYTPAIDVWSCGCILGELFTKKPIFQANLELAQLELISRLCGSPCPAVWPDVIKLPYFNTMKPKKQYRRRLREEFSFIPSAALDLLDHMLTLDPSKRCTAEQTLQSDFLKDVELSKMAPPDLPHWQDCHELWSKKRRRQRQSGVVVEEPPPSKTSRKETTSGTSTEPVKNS
Chain of CDK12 (aa686-1082)/Cyclin K complex (O75909 whole entry partner, the tested form may be a part): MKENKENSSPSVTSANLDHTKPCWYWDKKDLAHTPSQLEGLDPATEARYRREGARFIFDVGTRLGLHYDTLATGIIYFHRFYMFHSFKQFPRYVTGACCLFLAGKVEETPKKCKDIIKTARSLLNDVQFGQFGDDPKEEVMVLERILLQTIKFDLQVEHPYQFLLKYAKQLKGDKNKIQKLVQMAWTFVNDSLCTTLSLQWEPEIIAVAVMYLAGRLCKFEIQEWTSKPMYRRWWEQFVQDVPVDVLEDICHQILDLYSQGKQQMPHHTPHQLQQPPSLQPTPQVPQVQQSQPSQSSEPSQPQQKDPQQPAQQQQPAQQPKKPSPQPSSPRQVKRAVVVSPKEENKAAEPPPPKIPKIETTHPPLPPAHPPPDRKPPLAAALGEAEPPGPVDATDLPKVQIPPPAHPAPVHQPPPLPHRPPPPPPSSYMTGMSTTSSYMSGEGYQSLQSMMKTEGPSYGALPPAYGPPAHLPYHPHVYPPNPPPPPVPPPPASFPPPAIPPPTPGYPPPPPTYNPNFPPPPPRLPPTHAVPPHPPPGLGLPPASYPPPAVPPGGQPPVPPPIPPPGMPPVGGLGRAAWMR
Chain of CDK9/Cyclin T1 complex (P50750 whole entry): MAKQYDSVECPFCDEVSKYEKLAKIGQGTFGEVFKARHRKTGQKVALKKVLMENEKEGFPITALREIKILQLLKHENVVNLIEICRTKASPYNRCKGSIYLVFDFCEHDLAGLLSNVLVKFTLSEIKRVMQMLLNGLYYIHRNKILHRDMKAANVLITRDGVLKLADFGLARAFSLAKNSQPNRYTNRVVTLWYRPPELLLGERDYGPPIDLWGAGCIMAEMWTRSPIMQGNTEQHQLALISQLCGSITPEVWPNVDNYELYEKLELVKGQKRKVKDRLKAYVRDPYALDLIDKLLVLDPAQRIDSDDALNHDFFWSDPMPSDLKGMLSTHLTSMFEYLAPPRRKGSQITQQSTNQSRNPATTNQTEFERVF
Chain of CDK9/Cyclin T1 complex (O60563 whole entry partner): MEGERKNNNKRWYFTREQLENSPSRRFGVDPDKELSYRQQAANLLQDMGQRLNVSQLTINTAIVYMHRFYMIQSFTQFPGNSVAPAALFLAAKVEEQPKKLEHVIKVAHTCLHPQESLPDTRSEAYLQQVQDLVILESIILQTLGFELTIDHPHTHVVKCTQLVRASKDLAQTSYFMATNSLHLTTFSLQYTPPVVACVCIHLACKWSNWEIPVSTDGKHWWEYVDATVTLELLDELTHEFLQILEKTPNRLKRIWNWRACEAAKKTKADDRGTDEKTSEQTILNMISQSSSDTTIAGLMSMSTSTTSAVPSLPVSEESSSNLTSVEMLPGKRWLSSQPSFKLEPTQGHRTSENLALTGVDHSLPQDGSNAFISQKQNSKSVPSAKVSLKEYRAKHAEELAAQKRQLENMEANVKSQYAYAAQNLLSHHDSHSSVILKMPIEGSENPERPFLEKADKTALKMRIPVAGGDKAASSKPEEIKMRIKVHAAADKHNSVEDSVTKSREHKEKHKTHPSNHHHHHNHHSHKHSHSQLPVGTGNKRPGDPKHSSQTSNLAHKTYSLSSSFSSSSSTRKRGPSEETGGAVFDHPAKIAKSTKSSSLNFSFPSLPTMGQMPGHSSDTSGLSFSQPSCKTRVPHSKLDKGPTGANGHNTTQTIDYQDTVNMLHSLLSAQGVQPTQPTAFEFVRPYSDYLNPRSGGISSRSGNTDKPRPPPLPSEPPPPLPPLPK

| Compound | IC50 (COV318 cells) | IC50 (MB453 cells) | IC50 (CDK2/Cyclin E1 complex; [3]) | IC50 [1, 4] | IC50 [2, 5] | IC50 (CDK9/Cyclin T1 complex; [6]) | IC50 (COV504 cells) | IC50 (HCC70 cells) | IC50 (COV318 cells; Homo sapiens) | IC50 (MB453 cells; Homo sapiens) | IC50 (CDK2/Cyclin E1 complex) | IC50 [1] | IC50 [2] | IC50 (CDK9/Cyclin T1 complex) | IC50 (COV504 cells; Homo sapiens) | IC50 (HCC70 cells; Homo sapiens) |
| --- | --- | --- | --- | --- | --- | --- | --- | --- | --- | --- | --- | --- | --- | --- | --- | --- |
| 3-methyl-4-(3-(2-(methylthio)-5-(trifluoromethyl)pyrimidin-4-yl)-1-(phenylsulfonyl)-1H-pyrrolo[2,3-b]pyridin-6-yl)isoxazole [Compound 147] | > 1000 nM | < 100 nM | > 500 nM | > 500 nM | < 30 nM | > 500 nM | < 100 nM | < 100 nM |  |  |  |  |  |  |  |  |
| CO[C@@H]1CCNC[C@H]1Nc1ncc(C(F)(F)F)c(-c2c[nH]c3nc(-c4c(C)noc4C)ccc23)n1 (single isomer, unassigned) [Compound 117] |  |  |  |  |  |  |  |  | 500 to 1000 nM | < 100 nM | > 500 nM | > 500 nM | < 30 nM | > 500 nM | < 100 nM | 100 to 500 nM |
| CO[C@@H]1CCNC[C@H]1Nc1ncc(C(F)(F)F)c(-c2c[nH]c3cc(-c4c(C)noc4C)ccc23)n1 (single isomer, unassigned) [Compound 127] |  |  |  |  |  |  |  |  | 100 to 500 nM | < 100 nM | > 500 nM | > 500 nM | < 30 nM | > 500 nM | < 100 nM | > 1000 nM |
| Cc1noc(C)c1-c1ccc2c(-c3nc(N[C@@H]4CN(C(=O)OC(C)(C)C)CC[C@@H]4C)ncc3C(F)(F)F)cn(S(=O)(=O)c3ccccc3)c2n1 (single isomer, unassigned) [Compound 143] |  |  | > 500 nM | > 500 nM | < 30 nM | > 500 nM |  |  | > 1000 nM | < 100 nM |  |  |  |  | < 100 nM | < 100 nM |
| Cc1noc(C)c1-c1ccc2c(-c3nc(N[C@H]4CCCNC4)ncc3C(F)(F)F)n[nH]c2c1 [Compound 100, 4-[6-(3,5-dimethylisoxazol-4-yl)-1H-indazol-3-yl]-N-[(3S)-3-piperidyl]-5-(trifluoromethyl)pyrimidin-2-amine] |  |  |  |  |  |  |  |  | 100 to 500 nM | < 100 nM | > 500 nM | > 500 nM | < 30 nM | > 500 nM | < 100 nM | < 100 nM |
| Cc1noc(C)c1-c1ccc2c(-c3nc(N[C@H]4CCCNC4)ncc3C(F)(F)F)c[nH]c2n1 [Compound 101, 4-[6-(3,5-dimethylisoxazol-4-yl)-1H-pyrrolo-[2,3-b]-pyridin-3-yl]-N-[(3S)-3-piperidyl]-5-(trifluoromethyl)pyrimidin-2-amine] |  |  |  |  |  |  |  |  | < 100 nM | < 100 nM | > 500 nM | 100 to 500 nM | < 30 nM | > 500 nM | < 100 nM | < 100 nM |
| Cc1noc(C)c1-c1ccc2c(-c3nc(N[C@@H]4CNCC(C)(C)C4)ncc3C(F)(F)F)c[nH]c2c1 [Compound 102] |  |  |  |  |  |  |  |  | 100 to 500 nM | < 100 nM | > 500 nM | > 500 nM | < 30 nM | > 500 nM | < 100 nM | < 100 nM |
| FC(F)(F)c1cnc(N[C@H]2CCCNC2)nc1-c1n[nH]c2cc(-c3nccs3)ccc12 [Compound 103] |  |  |  |  |  |  |  |  | 100 to 500 nM | < 100 nM | > 500 nM | 100 to 500 nM | < 30 nM | > 500 nM | < 100 nM | 100 to 500 nM |
| Cc1noc(C)c1-c1ccc2c(-c3nc(N[C@H]4CCC(C)(C)NC4)ncc3C(F)(F)F)c[nH]c2c1 [Compound 104, (S)-4-(6-(3,5-dimethylisoxazol-4-yl)-1H-indol-3-yl)-N-(6,6-dimethylpiperidin-3-yl)-5-(trifluoromethyl)pyrimidin-2-amine] |  |  |  |  |  |  |  |  | 100 to 500 nM | < 100 nM | > 500 nM | > 500 nM | < 30 nM | > 500 nM | < 100 nM | < 100 nM |
